# Data taken from patent publication US20250382344A1, “Soluble GLP1/GIP/NPY2 Receptor Triple Agonists” (Boehringer Ingelheim International GmH, priority 2024, published 2025).
# Read-outs that look alike come from different tables or passages of the source.
# Legend:
# [1] = Solubility in 0.1 M phosphate buffer at pH 7; assay type: physicochemical; conditions: 0.1 M phosphate buffer at pH 7, 10 mg/mL final peptide concentration, shaking 2 hours at room temperature, peptides as TFA-salts; measured sample pH 6.5-7.0
# hGIPR = molecular target: T1, hGIPR (Homo sapiens, UniProt P48546); test: hGIPR CreLuc assay in 0.5% and 100% plasma (CHO CRE-luciferase reporter cells); assay type: cell-based
# T1 construct: expressed in transfected cells; host or cells: CHO CRE-luciferase reporter cells
# T1 sequence (P48546 22-466): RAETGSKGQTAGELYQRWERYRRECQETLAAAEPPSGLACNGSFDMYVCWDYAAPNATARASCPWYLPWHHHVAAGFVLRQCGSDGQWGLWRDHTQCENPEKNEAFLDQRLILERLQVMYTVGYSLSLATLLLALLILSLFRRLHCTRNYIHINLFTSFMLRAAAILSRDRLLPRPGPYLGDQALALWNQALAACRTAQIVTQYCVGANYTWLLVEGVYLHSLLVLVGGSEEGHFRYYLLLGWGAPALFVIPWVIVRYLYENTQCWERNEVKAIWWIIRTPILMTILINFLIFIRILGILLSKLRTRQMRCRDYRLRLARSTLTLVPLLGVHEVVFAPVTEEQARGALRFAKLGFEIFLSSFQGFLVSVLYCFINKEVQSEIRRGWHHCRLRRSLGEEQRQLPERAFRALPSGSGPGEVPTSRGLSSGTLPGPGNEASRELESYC
# hGLP1R = molecular target: T2, hGLP1R (Homo sapiens, UniProt P43220); test: hGLP1R CreLuc assay in 0.5% and 100% plasma (HEK-293 CRE-luciferase reporter cells); assay type: cell-based; conditions: HEK-293 reporter cells
# T2 construct: expressed in transfected cells; host or cells: HEK-293 CRE-luciferase reporter cells
# [2] = 0.5% human plasma, read-out: hGIPR 0.5% hP
# [3] = 0.5% human plasma, read-out: hGLP1R 0.5% hP
# [4] = 100% human plasma, read-out: hGLP1R 100% hP
# T2 sequence (P43220 24-463): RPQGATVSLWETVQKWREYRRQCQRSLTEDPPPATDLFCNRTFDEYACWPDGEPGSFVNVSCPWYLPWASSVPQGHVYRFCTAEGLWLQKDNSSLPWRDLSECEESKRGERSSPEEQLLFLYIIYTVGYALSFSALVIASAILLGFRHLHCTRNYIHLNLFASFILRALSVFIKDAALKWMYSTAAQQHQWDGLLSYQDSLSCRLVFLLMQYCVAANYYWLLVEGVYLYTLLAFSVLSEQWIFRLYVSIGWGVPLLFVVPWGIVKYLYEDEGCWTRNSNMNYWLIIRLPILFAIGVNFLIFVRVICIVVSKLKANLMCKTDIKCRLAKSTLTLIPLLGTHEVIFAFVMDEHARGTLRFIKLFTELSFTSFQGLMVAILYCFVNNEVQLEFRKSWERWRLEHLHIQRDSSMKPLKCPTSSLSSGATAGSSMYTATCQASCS
solubility at 2 h [1] [µg/mL],EC50 (hGIPR; [2]) [nM],"EC50 (hGIPR; 100% human plasma, read-out: hGIPR 100% hP) [nM]",EC50 (hGLP1R; [3]) [nM],EC50 (hGLP1R; [4]) [nM],Compound
4200,0.3,3.4,2,,"CC[C@H](C)[C@H](NC(=O)[C@H](CC(C)C)NC(=O)[C@H](Cc1c[nH]cn1)NC(=O)[C@H](CCCNC(=N)N)NC(=O)[C@@H](NC(=O)[C@H](Cc1ccccc1)NC(=O)[C@H](C)NC(=O)C(C)(C)NC(=O)[C@H](CCC(N)=O)NC(=O)[C@H](C)NC(=O)[C@H](CCC(N)=O)NC(=O)[C@H](CCCCN)NC(=O)[C@H](CCC(=O)O)NC(=O)[C@H](CC(C)C)NC(=O)C(C)(C)NC(=O)[C@@H](NC(=O)[C@H](CO)NC(=O)[C@H](Cc1ccc(O)cc1)NC(=O)[C@H](CC(=O)O)NC(=O)[C@H](CO)NC(=O)[C@@H](NC(=O)[C@H](Cc1ccccc1)NC(=O)[C@@H](NC(=O)CNC(=O)[C@H](CCC(=O)O)NC(=O)C(C)(C)NC(=O)[C@@H](N)Cc1ccc(O)cc1)[C@@H](C)O)[C@@H](C)O)[C@@H](C)CC)C(C)C)C(=O)N[C@@H](CC(N)=O)C(=O)N[C@@H](CCCCNC(=O)[C@@H](N)CCCCNC(=O)CC[C@H](NC(=O)CC[C@H](NC(=O)CC[C@H](NC(=O)CC[C@H](NC(=O)CC[C@H](NC(=O)CC[C@H](NC(=O)CCCCCCCCCCCCCCCCC(=O)O)C(=O)O)C(=O)O)C(=O)O)C(=O)O)C(=O)O)C(=O)O)C(=O)NC(C)(C)C(=O)N[C@H](C(=O)N[C@@H](CCCNC(=N)N)C(=O)N[C@@H](CCC(N)=O)C(=O)N[C@@H](CCCNC(=N)N)C(=O)N(C)[C@@H](Cc1ccc(O)cc1)C(N)=O)[C@@H](C)O [Compound 116, Y-Aib-E-G-T-F-T-S-D-Y-S-I-Aib-L-E-K-Q-A-Q-Aib-A-F-V-R-H-L-I-N-K(1,3)-Aib-T-R-Q-R-NMeY-NH2.C18DA-gGlu-gGlu-gGlu-gGlu-gGlu-gGlu-eLys(1,2)]"
5000,0.3,,0.5,1.8,"CC[C@H](C)[C@H](NC(=O)[C@H](CC(C)C)NC(=O)[C@H](Cc1c[nH]cn1)NC(=O)[C@H](CCCNC(=N)N)NC(=O)[C@@H](NC(=O)[C@H](Cc1ccccc1)NC(=O)[C@H](CCC(=O)O)NC(=O)C(C)(C)NC(=O)[C@H](CCC(N)=O)NC(=O)[C@H](C)NC(=O)[C@H](CCC(N)=O)NC(=O)[C@H](CCCCN)NC(=O)[C@H](CCC(=O)O)NC(=O)[C@H](CC(C)C)NC(=O)C(C)(C)NC(=O)[C@@H](NC(=O)[C@H](CO)NC(=O)[C@H](Cc1ccc(O)cc1)NC(=O)[C@H](CC(=O)O)NC(=O)[C@H](CO)NC(=O)[C@@H](NC(=O)[C@H](Cc1ccccc1)NC(=O)[C@@H](NC(=O)CNC(=O)[C@H](CCC(=O)O)NC(=O)C(C)(C)NC(=O)[C@@H](N)Cc1ccc(O)cc1)[C@@H](C)O)[C@@H](C)O)[C@@H](C)CC)C(C)C)C(=O)N[C@@H](CC(N)=O)C(=O)N[C@@H](CCCCNC(=O)[C@@H](N)CCCCNC(=O)CC[C@H](NC(=O)CC[C@H](NC(=O)CC[C@H](NC(=O)CC[C@H](NC(=O)CC[C@H](NC(=O)CC[C@H](NC(=O)CCCCCCCCCCCCCCCCC(=O)O)C(=O)O)C(=O)O)C(=O)O)C(=O)O)C(=O)O)C(=O)O)C(=O)NC(C)(C)C(=O)N[C@H](C(=O)N[C@@H](CCCNC(=N)N)C(=O)N[C@@H](CCC(N)=O)C(=O)N[C@@H](CCCNC(=N)N)C(=O)N[C@@H](Cc1ccc(O)cc1)C(N)=O)[C@@H](C)O [Compound 145, Y-Aib-E-G-T-F-T-S-D-Y-S-I-Aib-L-E-K-Q-A-Q-Aib-E-F-V-R-H-L-I-N-K(1,3)-Aib-T-R-Q-R-Y-NH2.C18DA-gGlu-gGlu-gGlu-gGlu-gGlu-gGlu-eLys(1,2)]"
4300,0.2,,0.9,14.5,"CC[C@H](C)[C@H](NC(=O)[C@H](CC(C)C)NC(=O)[C@H](Cc1c[nH]cn1)NC(=O)[C@H](CCCNC(=N)N)NC(=O)[C@@H](NC(=O)[C@H](Cc1ccccc1)NC(=O)[C@H](C)NC(=O)C(C)(C)NC(=O)[C@H](CCC(N)=O)NC(=O)[C@H](C)NC(=O)[C@H](CCC(N)=O)NC(=O)[C@H](CCC(N)=O)NC(=O)[C@H](CCC(=O)O)NC(=O)[C@H](CC(C)C)NC(=O)C(C)(C)NC(=O)[C@@H](NC(=O)[C@H](CO)NC(=O)[C@H](Cc1ccc(O)cc1)NC(=O)[C@H](CC(=O)O)NC(=O)[C@H](CO)NC(=O)[C@@H](NC(=O)[C@H](Cc1ccccc1)NC(=O)[C@@H](NC(=O)CNC(=O)[C@H](CCC(=O)O)NC(=O)C(C)(C)NC(=O)[C@@H](N)Cc1ccc(O)cc1)[C@@H](C)O)[C@@H](C)O)[C@@H](C)CC)C(C)C)C(=O)N[C@@H](CC(N)=O)C(=O)N[C@@H](CCCCNC(=O)CC[C@H](NC(=O)CC[C@H](NC(=O)CC[C@H](NC(=O)CC[C@H](NC(=O)CC[C@H](NC(=O)CCCCCCCCCCCCCCCCC(=O)O)C(=O)O)C(=O)O)C(=O)O)C(=O)O)C(=O)O)C(=O)NC(C)(C)C(=O)N[C@H](C(=O)N[C@@H](CCCNC(=N)N)C(=O)N[C@@H](CCC(N)=O)C(=O)N[C@@H](CCCNC(=N)N)C(=O)N[C@@H](Cc1ccc(O)cc1)C(N)=O)[C@@H](C)O [Compound 42, Y-Aib-E-G-T-F-T-S-D-Y-S-I-Aib-L-E-Q-Q-A-Q-Aib-A-F-V-R-H-L-I-N-K(1,3)-Aib-T-R-Q-R-Y-NH2.C18DA-gGlu-gGlu-gGlu-gGlu-gGlu(1,2)]"
4500,0.4,,0.7,,"CC[C@H](C)[C@H](NC(=O)[C@H](CC(C)C)NC(=O)[C@H](Cc1c[nH]cn1)NC(=O)[C@H](CCCNC(=N)N)NC(=O)[C@@H](NC(=O)[C@H](Cc1ccccc1)NC(=O)[C@H](C)NC(=O)C(C)(C)NC(=O)[C@H](CCC(N)=O)NC(=O)[C@H](C)NC(=O)[C@H](CCC(N)=O)NC(=O)[C@H](CCCCN)NC(=O)[C@H](CCC(=O)O)NC(=O)[C@H](CC(C)C)NC(=O)C(C)(C)NC(=O)[C@@H](NC(=O)[C@H](CO)NC(=O)[C@H](Cc1ccc(O)cc1)NC(=O)[C@H](CC(=O)O)NC(=O)[C@H](CO)NC(=O)[C@@H](NC(=O)[C@H](Cc1ccccc1)NC(=O)[C@@H](NC(=O)CNC(=O)[C@H](CCC(=O)O)NC(=O)C(C)(C)NC(=O)[C@@H](N)Cc1ccc(O)cc1)[C@@H](C)O)[C@@H](C)O)[C@@H](C)CC)C(C)C)C(=O)N[C@@H](CC(N)=O)C(=O)N[C@@H](CCCCNC(=O)COCCOCCNC(=O)CC[C@H](NC(=O)CC[C@H](NC(=O)CC[C@H](NC(=O)CC[C@H](NC(=O)CC[C@H](NC(=O)CCCCCCCCCCCCCCCCC(=O)O)C(=O)O)C(=O)O)C(=O)O)C(=O)O)C(=O)O)C(=O)N[C@@H](CC(C)C)C(=O)N[C@H](C(=O)N[C@@H](CCCNC(=N)N)C(=O)N[C@@H](CCC(N)=O)C(=O)N[C@@H](CCCNC(=N)N)C(=O)N[C@@H](Cc1ccc(O)cc1)C(N)=O)[C@@H](C)O [Compound 7, Y-Aib-E-G-T-F-T-S-D-Y-S-I-Aib-L-E-K-Q-A-Q-Aib-A-F-V-R-H-L-I-N-K(1,3)-L-T-R-Q-R-Y-NH2.C18DA-gGlu-gGlu-gGlu-gGlu-gGlu-OEG(1,2)]"
